# Test results from ChEMBL document CHEMBL4184189, “Discovery of orally efficacious RORγt inverse agonists, part 1: Identification of novel phenylglycinamides as lead scaffolds” (Bioorg Med Chem, 2018).
# Key:
# [1] = biological target: T1, Nuclear receptor ROR-gamma (Homo sapiens, UniProt P51449); test: Displacement of BODIPY-cholesterol from human His-tagged RORgammat after 20 mins by TR-FRET assay
# T1 sequence (P51449 whole entry): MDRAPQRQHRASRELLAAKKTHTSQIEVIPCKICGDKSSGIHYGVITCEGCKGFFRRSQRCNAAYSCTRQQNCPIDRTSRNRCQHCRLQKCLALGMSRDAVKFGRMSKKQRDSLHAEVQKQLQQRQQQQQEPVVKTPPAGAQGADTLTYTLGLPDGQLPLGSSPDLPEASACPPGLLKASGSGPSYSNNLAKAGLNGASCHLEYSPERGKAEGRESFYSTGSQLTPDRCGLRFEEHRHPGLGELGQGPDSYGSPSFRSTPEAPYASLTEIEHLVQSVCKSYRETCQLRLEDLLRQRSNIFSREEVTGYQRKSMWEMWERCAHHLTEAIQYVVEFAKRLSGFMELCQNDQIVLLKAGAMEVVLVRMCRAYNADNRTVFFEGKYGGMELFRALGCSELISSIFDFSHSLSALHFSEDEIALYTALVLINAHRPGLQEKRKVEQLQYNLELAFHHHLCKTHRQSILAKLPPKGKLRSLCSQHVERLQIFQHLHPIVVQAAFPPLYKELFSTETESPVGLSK
# [2] = biological target: T1, Nuclear receptor ROR-gamma; test: Inverse agonist activity at RORgammat in human Jurkat cells assessed as inhibition of transcriptional activity after overnight incubation by human IL-17 ROR response element driven-bright-glo luciferase reporter gene assay; type: cell-based
# [3] = biological target: T2, Nuclear receptor ROR-gamma (Homo sapiens) (UniProt P51449); test: Displacement of 25-[3H2]hydroxycholesterol from GST-tagged RORgammat (unknown origin) at 10 uM
# T2 sequence (whole entry): T1 sequence (P51449 whole entry)
# [4] = species on record: Homo sapiens; test: Selectivity ratio of IC50 for RORalpha in human Jurkat cells to IC50 for RORgammat in human Jurkat cells; type: cell-based
# [5] = species on record: Homo sapiens; test: Selectivity ratio of IC50 for RORbeta in human Jurkat cells to IC50 for RORgammat in human Jurkat cells; type: cell-based
# [6] = Drug uptake in po dosed Balb/c mouse ear; type: ADME, organism-based; details: in vivo
# [7] = Drug uptake in Balb/c mouse plasma at 10 to 100 mg/kg, po; type: ADME, organism-based; details: in vivo
# [8] = Drug uptake in po dosed Balb/c mouse ear after 8 hrs; type: ADME, organism-based; details: in vivo
# [9] = AUC (0 to 24 hrs) in mouse plasma at 100 mg/kg, po; type: ADME, organism-based; design: dose 100 mg/kg, time < 24 hr, route oral
# [10] = system: Mus musculus; test: (§1) AUC (0 to 8 hrs) in mouse at 1 mg/kg, po administered as cassette dose; type: ADME, organism-based; design: time < 8 hr, dose 1 mg/kg, route oral; details: in vivo, 8 h
# [11] = system: Mus musculus; test: In vivo inverse agonist activity at RORgammat in Balb/c mouse assessed as inhibition of IL-23-induced IL-17a gene expression at 100 mg/kg, po administered 30 mins before and 8 hrs after IL-23 injection in ears intradermally measured after 24 hrs by qRT-PCR analysis relative to control; type: functional
# [12] = Cmax in mouse plasma at 100 mg/kg, po; type: ADME, organism-based; design: dose 100 mg/kg, route oral
# [13] = Tmax in mouse plasma at 100 mg/kg, po; type: ADME, organism-based
# [14] = as §1; type: ADME, organism-based; design: time < 8 hr, dose 1 mg/kg, route oral; details: in vivo
IC50 [1],IC50 [2],AUC(0-t) at 8 h [14],Structure (SMILES),also measured
,,86 ng·h/mL,COc1ccc(C(C(=O)Nc2ccc([Si](C)(C)C)cc2)N(C)C(=O)c2ccc(O)nc2)cc1 (racemic),
> 10 µM,> 30 µM,,COc1ccc(C(C(=O)N(C)c2ccc(C(C)(C)C)cc2)N(C)C(=O)c2ccc(=O)[nH]c2)cc1 (racemic),
> 10 µM,> 30 µM,,COc1ccc(CC(C(=O)Nc2ccc(C(C)(C)C)cc2)N(C)C(=O)c2ccc(=O)[nH]c2)cc1 (racemic),
> 10 µM,> 30 µM,,COc1ccc(C(CC(=O)Nc2ccc(C(C)(C)C)cc2)N(C)C(=O)c2ccc(=O)[nH]c2)cc1 (racemic),

# The remaining lines, values behind:
Structure (SMILES),IC50 [1],IC50 [2],AUC(0-t) at 8 h [14],also measured
COc1ccc(C(C(=O)Nc2ccc(C(C)C)cc2)N(C)C(=O)c2ccc(O)nc2)cc1 (racemic),0.2 µM,1.6 µM,,inhibition [3]: 93%; Ratio IC50 [4]: > 15; Ratio IC50 [5]: > 15
COc1ccc([C@H](C(=O)Nc2cc(F)c([Si](C)(C)C)c(F)c2)N(C)C(=O)c2cc(O)no2)cc1,,,,Drug uptake [6]: Dose-dependent effect and Tde; Drug uptake [7]: Active; Drug uptake [8]: Active; AUC(0-t) at 24 h [9]: 47400 ng·h/mL; AUC [10]: 370 ng·h/mL; inhibition in vivo at 100 mg/kg [11]: 71%; Cmax [12]: 9120 ng/mL; Tmax [13]: 1 h
COc1ccc(C(C(=O)Nc2cc(F)c([Si](C)(C)C)c(F)c2)N(C)C(=O)c2cc(O)no2)cc1 (racemic),,,1510 ng·h/mL,
COc1ccc(C(C(=O)Nc2ccc([Si](C)(C)C)cc2)N(C)C(=O)c2cc(O)no2)cc1 (racemic),,,1590 ng·h/mL,
